Entries after “also recorded” stand apart in the source; their conditions may differ. Where no end group is shown, it is not given here.
How the values were obtained:
[1] = tested on: FC1199 orthotopic tumors; test: in vivo FC1199 orthotopic tumors, vessel number/vessel density (angiogenesis); design: species or system mice; conditions: no day stated
Text: (§1) While not wishing to be bound to any particular theory, it was hypothesized that the peptides might still be effective in blocking the formation and/or removing the formation of desmoplasia or tumor stroma associated with a solid tumor alone acting to prevent and or to treat cancer and as well to providing greater access of the chemotherapeutic or immunotherapeutic agent to the tumor. […] It is believed that many large, and smaller, molecule immunotherapeutic agents will not react with Peptides 1 and 2 and they may also be used in combination with one another.

[2] = tested on: MIA PaCa2-Luc cancer cells; test: in vitro proliferation of MIA PaCa2-Luc cancer cells; type: cell-based, Human; conditions: FIG. 2
Text: (§2) Peptides were examined in two different pancreatic cancer cell lines to determine consistency of response. We sought to determine if there was efficacy of the peptide alone, or in combination with conventional chemotherapy, i.e., does it potentiate the effects of current therapy. The two cell lines used were Human MIA PaCa2-Luc, and Murine FC1199 (derived from tumors in KPC GEM mice).
as §1
(§3) The in vitro studies used human MIA PaCa2-Luc, and Murine FC1199 cell lines.

[3] = tested on: FC1199 orthotopic tumors; test: in vivo FC1199 orthotopic tumors, matrix deposition (desmoplasia); design: species or system mice; conditions: no day stated
Text: as §1
(§4) FIGS. 6-24 show the experimental protocol and results of in vivo studies of orthotopic tumors derived from the Murine FC1199 cell line and implanted into Kras and P53 mice.

[4] = tested on: FC1199 orthotopic tumors; test: in vivo FC1199 orthotopic tumors, tumor burden as pancreas weight; design: species or system mice; conditions: for potentiation of the therapeutic effects of gemcitabine / chemotherapeutic agent in vivo: combination, pancreas weight, FIGS. 21 and 22; for tumor burden / tumor growth as measured by pancreas weight: orthotopic FC1199 tumors in mice, no day stated
Text: FIGS. 1-24 show the in vitro and in vivo studies of CCNp37 (SEQ ID NO. 37) (Peptide 2 in the FIGS.) and CCNp38 (SEQ ID NO. 38) (Peptide 1 in the FIGS.) alone or in combination with a chemotherapeutic agent gemcitabine in treating pancreatic cells or orthotopic tumors implanted in the pancreas of mice. Gemcitibine is an example of an approved small molecule chemotherapeutic agent that is used in the clinic for pancreatic cancer, other suitable chemotherapeutic or immunotherapeutic agents are, for example, Abraxane (Paclitaxel Albumin-stabilized Nanoparticle Formulation), Afinitor (Everolimus), Erlotinib Hydrochloride, Everolimus, 5-FU (Fluorouracil Injection), Fluorouracil Injection, Gemcitabine Hydrochloride, Gemzar (Gemcitabine Hydrochloride), Irinotecan Hydrochloride Liposome, Mitomycin C, Mitozytrex (Mitomycin C), Mutamycin (Mitomycin C), Onivyde (Irinotecan Hydrochloride Liposome), Paclitaxel Albumin-stabilized Nanoparticle Formulation, Sunitinib Malate, Sutent (Sunitinib Malate), and Tarceva (Erlotinib Hydrochloride) and combinations of the same. Other suitable drug combinations for treating pancreatic cancer includes: FOLFIRINOX, GEMCITABINE-CISPLATIN, GEMCITABINE-OXALIPLATIN, and OFF. Suitable drugs for treatment for gastroenteropancreatic neuroendocrine tumors: Lanreotide Acetate, and Somatuline Depot (Lanreotide Acetate).
as §4
FIGS. 18 and 19 show the protocol of a second in vivo experiment (Experiment 2).
(§5) FIGS. 21-24 show the protocol for the second invo experiment on the effectiveness of administering Peptides 1 and 2±gemcitabine. […] In FIG. 21, peptide 1 or 2 was delivered on day 11 of the study after tumor implantation and gemcitabine was delivered on day 14. […] Ascites formation is a marker of late stage pancreatic cancer and can predict mortality.

[5] = tested on: FC1199 orthotopic tumors; test: in vivo FC1199 orthotopic tumors, ascites production; design: species or system mice
Text: as §5

[6] = tested on: FC1199 cells; test: in vitro FC1199 cell growth, gemcitabine repression; type: cell-based, Murine; conditions: FIGS. 3 and 5
Text: as §2, §3

[7] = tested on: Human MIA PaCa2-Luc, and Murine FC1199 pancreatic cancer cell lines; test: in vitro cancer cell growth in two pancreatic cancer cell lines; type: cell-based; conditions: FIGS. 2-5
Text: as §2, §3

[8] = in vivo toxicity study (body weight change); conditions: tumor-bearing mice
Text: as §4
Ascites formation is a marker of late stage pancreatic cancer and can predict mortality.

[9] = tested on: renal fibrosis; conditions: disclosed in U.S. Pat. No. 7,780,949; cited from earlier work

SDRSADPNNQTGIS [Peptide 1, Mouse analog with native cysteines replaced with serines]
angiogenesis as measured by vessel number/vessel density [1]: reducing angiogenesis; also recorded: a reduction in angiogenesis as measured by vessel number/vessel density | proliferation of MIA PaCa2-Luc cancer cells [2]: do not reduce the proliferation of MIA PaCa2-Luc cancer cells | desmoplasia as measured by matrix deposition area [3]: effective in treating desmoplasia or stroma associated with a solid tumor; also recorded: a reduction in desmoplasia as measured by matrix deposition area | tumor burden in terms of pancreas weight, day 14 ([4]; Experiment 2, day 14, vs control): effective in reducing the tumor burden in terms of reduced pancreas weight when compared to a control | tumor burden in terms of pancreas weight, day 25 ([4]; Experiment 2, day 25, vs control): effective in reducing the tumor burden in terms of reduced pancreas weight when compared to a control | potentiation of the therapeutic effects of gemcitabine / chemotherapeutic agent in vivo [4]: can potentiate the therapeutic effects of the standard chemotherapeutic agent gemcitabine | potentiation of the therapeutic effects of gemcitabine / chemotherapeutic agent in vivo ([4]; listed as CCNp38): treat a solid tumor more effectively than the chemotherapeutic or immunotherapeutic agents alone | tumor burden / tumor growth as measured by pancreas weight [4]: effective in reducing the growth of orthotopic FC1199 tumor burden as measured by pancreas weight; also recorded: effective in reducing tumor growth and weight | expansion and spread of the tumor and cancer cells ([4]; overview FIG. 1): blocking the expansion and spread of the tumor and cancer cells | number of mice with ascites / ascites formation ([5]; day 25, vs control): reducing the formation of ascites associated with a solid tumor; also recorded: effective in reducing the number of mice with ascites | inflammation ([5]; inferred from ascites data): reduce inflammation | potentiation of gemcitabine repression of FC1199 cell growth [6]: did not potentiate the effects of gemcitabine in repressing of FC1199 cell growth | cancer growth / cell proliferation in vitro ([7]; agent alone): did not slow cancer growth in vitro; also recorded: do not have an effect in cell proliferation | potentiation of the effects of gemcitabine in reducing cancer growth in vitro ([7]; combination with gemcitabine): did little or nothing to potentiate the effects of the chemotherapeutic agent gemcitabine in reducing cancer growth in vitro

FSGVSSDGRSSTPH [Peptide 2, FSGVSSDGRSSTPH]
toxicity (body weight change) [8]: non-toxic

Nc1ccn([C@@H]2O[C@H](CO)[C@@H](O)C2(F)F)c(=O)n1 [Gemcitabine, gemcitabine, reference compound]
tumor burden / tumor growth as measured by pancreas weight [4]: produces a dose-dependent response to tumor burden

B1: full-length CCN3 molecule: full-length CCN3 protein of U.S. Pat. No. 7,780,949 (protein, UniProt P48745 1-357, looked up)
chain: MQSVQSTSFCLRKQCLCLTFLLLHLLGQVAATQRCPPQCPGRCPATPPTCAPGVRAVLDGCSCCLVCARQRGESCSDLEPCDESSGLYCDRSADPSNQTGICTAVEGDNCVFDGVIYRSGEKFQPSCKFQCTCRDGQIGCVPRCQLDVLLPEPNCPAPRKVEVPGECCEKWICGPDEEDSLGGLTLAAYRPEATLGVEVSDSSVNCIEQTTEWTACSKSCGMGFSTRVTNRNRQCEMLKQTRLCMVRPCEQEPEQPTDKKGKKCLRTKKSLKAIHLQFKNCTSLHTYKPRFCGVCSDGRCCTPHNTKTIQAEFQCSPGQIVKKPVMVIGTCTCHTNCPKNNEAFLQELELKTTRGKM
modifications: full-length
fibrosis in an in vitro model of renal fibrosis [9]: blocks fibrosis
